# PMC3776780, “Dual p38/JNK Mitogen Activated Protein Kinase Inhibitors Prevent Ozone-Induced Airway Hyperreactivity in Guinea Pigs” (PLoS ONE, 2013)
# Columns and labels:
# [1] = molecular target: CDK2 (Homo sapiens, UniProt P24941); assay: spectrophotometric coupled-enzyme kinase inhibition assay; format: biochemical; details: read-out: Ki or IC50 CDK2
# Description: (§1) Affinity was measured using a kinase inhibition assay. Compounds were assayed for the inhibition of various kinases using a modification of a spectrophotometric coupled-enzyme assay. In this assay, a fixed concentration of activated kinase (10–40 nM) was incubated with various concentrations of a potential inhibitor dissolved in DMSO for 10 minutes at 30°C in a buffer containing 0.1 M HEPES, pH 7.5, containing 10 mM MgCl2, 2.5 mM phosphoenolpyruvate, 200 µM NADH, 2 mM DTT, 30 µg/mL pyruvate kinase, 10 µg/mL lactate dehydrogenase, and 200 µM–500 µM EGF receptor peptide. The EGF receptor peptide has the sequence […]. The reaction was initiated by the addition of ATP equal to the ATP Km of the kinase, and the assay plate is inserted into the spectrophotometer’s assay plate compartment that was maintained at 30°C. The decrease of absorbance at 340 nm was monitored as a function of time for 10 minutes. The rate data as a function of inhibitor concentration was either fit as an IC50 or to a competitive inhibition kinetic model to determine the compound Ki (see table 1).
# [2] = molecular target: IRAK; assay: as above; format: biochemical; details: read-out: Ki or IC50 IRAK
# Description: as §1
# [3] = molecular target: MAPKAP2 (Homo sapiens, UniProt P49137); assay: as above; format: biochemical; details: read-out: Ki or IC50 MAPKAP2
# Sequence of MAPKAP2 (P49137 whole entry): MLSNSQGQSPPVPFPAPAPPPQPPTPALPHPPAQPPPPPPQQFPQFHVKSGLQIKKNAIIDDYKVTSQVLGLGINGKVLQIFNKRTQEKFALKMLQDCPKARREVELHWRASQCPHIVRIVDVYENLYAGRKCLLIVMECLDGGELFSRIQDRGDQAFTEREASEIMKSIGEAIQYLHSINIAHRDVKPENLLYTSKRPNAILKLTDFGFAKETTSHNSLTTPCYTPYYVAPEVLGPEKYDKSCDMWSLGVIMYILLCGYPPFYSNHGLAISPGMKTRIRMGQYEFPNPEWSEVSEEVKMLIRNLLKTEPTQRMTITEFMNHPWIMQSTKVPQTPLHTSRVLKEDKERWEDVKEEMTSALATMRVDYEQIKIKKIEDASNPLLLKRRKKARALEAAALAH
# Description: as §1
# [4] = molecular target: T1, MKK4 (Homo sapiens, UniProt P45985); assay: as above; format: biochemical; details: read-out: Ki or IC50 MKK4
# T1 sequence (P45985 1-399): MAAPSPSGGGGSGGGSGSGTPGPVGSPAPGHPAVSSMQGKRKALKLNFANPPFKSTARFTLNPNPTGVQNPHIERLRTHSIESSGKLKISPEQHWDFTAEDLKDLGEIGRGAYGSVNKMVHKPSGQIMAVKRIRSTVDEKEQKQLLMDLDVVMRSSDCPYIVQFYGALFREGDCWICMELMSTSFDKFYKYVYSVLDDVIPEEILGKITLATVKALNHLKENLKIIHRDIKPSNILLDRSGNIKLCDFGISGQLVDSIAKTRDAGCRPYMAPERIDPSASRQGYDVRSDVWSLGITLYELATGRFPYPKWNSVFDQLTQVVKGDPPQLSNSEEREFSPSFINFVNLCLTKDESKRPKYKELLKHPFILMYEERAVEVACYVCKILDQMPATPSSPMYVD
# Description: as §1
# [5] = molecular target: T2, MKK6 (Homo sapiens, UniProt P52564); assay: as above; format: biochemical; details: read-out: Ki or IC50 MKK6
# T2 sequence (P52564 1-334): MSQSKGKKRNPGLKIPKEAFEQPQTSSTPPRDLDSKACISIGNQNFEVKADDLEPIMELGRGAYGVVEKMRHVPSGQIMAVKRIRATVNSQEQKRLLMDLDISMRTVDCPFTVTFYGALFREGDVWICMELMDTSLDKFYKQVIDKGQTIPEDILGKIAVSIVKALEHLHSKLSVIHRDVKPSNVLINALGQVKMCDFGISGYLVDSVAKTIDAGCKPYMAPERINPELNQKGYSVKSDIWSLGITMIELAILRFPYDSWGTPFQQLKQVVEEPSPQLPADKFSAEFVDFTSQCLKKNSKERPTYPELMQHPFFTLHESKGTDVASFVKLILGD
# Description: as §1
# [6] = molecular target: PIM1 (Homo sapiens, UniProt P11309); assay: as above; format: biochemical; details: read-out: Ki or IC50 PIM1
# Sequence of PIM1 (P11309 whole entry, species assumed): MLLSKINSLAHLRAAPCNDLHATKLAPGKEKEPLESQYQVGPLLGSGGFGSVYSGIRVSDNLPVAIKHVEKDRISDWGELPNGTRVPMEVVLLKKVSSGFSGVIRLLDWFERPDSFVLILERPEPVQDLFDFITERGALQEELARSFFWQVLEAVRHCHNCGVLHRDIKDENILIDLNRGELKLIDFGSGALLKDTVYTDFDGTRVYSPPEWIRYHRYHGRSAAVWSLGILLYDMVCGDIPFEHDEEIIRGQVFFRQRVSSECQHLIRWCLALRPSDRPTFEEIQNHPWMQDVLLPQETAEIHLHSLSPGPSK
# Description: as §1
# [7] = molecular target: PLK1 (Homo sapiens, UniProt P53350); assay: as above; format: biochemical; details: read-out: Ki or IC50 PLK1
# Sequence of PLK1 (P53350 whole entry, species assumed): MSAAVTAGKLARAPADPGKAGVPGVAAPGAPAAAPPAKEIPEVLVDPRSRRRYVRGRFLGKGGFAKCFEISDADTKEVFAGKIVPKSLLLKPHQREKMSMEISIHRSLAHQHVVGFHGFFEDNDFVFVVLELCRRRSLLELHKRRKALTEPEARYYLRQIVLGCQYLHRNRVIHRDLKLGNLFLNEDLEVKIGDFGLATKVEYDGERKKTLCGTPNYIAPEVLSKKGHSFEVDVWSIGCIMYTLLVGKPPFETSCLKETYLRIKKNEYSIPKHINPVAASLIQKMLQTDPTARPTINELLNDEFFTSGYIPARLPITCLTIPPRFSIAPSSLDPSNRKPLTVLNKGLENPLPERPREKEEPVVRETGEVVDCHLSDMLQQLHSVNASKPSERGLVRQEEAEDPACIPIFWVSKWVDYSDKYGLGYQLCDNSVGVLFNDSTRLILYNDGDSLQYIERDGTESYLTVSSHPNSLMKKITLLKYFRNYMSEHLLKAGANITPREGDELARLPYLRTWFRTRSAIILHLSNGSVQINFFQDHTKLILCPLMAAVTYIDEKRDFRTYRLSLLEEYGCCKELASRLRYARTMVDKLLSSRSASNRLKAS
# Description: as §1
# [8] = molecular target: T3, PRAK (Homo sapiens, UniProt Q8IW41); assay: as above; format: biochemical; details: read-out: Ki or IC50 PRAK
# T3 sequence (Q8IW41 1-473): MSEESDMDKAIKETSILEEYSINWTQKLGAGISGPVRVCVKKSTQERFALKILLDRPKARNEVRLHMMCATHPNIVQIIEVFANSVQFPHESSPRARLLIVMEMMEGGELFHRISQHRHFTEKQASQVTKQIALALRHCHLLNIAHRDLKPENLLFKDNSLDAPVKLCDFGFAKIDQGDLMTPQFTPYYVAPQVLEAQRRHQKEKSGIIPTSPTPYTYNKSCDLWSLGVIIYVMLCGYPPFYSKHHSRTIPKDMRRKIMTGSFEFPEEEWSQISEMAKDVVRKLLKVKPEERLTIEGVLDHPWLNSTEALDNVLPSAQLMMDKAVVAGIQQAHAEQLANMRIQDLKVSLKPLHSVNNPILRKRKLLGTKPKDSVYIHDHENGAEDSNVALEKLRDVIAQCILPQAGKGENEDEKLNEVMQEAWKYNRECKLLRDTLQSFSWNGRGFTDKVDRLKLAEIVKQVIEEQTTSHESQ
# Description: as §1
# [9] = molecular target: TIE2 (Homo sapiens, UniProt Q02763); assay: as above; format: biochemical; details: read-out: Ki or IC50 TIE2
# Sequence of TIE2 (Q02763 23-1124, species assumed): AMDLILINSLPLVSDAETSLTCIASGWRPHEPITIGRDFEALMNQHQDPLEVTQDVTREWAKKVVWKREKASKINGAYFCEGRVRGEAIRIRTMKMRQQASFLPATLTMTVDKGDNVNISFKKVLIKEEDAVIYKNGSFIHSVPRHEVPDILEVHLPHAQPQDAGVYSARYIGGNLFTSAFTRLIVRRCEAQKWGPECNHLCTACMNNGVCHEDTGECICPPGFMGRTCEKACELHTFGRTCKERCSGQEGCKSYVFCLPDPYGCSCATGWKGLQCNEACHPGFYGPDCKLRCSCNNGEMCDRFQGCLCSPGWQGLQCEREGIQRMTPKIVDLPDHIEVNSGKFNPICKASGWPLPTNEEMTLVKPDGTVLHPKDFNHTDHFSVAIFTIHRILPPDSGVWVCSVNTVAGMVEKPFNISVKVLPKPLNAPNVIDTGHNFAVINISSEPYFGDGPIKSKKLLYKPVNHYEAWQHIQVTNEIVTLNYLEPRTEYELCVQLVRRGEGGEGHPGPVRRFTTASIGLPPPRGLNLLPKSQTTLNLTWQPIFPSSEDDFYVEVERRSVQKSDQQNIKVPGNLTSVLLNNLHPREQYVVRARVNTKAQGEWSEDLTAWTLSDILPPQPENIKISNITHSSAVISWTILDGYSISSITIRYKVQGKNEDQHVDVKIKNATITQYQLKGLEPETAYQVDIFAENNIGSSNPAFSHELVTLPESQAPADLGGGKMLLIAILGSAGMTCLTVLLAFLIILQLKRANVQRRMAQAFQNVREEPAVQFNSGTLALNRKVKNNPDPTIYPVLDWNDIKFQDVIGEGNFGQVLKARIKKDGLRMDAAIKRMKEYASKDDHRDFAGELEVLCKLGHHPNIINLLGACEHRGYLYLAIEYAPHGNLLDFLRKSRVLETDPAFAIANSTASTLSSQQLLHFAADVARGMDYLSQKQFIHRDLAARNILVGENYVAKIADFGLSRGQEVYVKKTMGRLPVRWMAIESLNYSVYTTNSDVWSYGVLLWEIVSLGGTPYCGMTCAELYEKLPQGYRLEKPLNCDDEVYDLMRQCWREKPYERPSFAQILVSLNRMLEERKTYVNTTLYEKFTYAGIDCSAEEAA
# Description: as §1
# [10] = molecular target: p38 (Homo sapiens, UniProt Q16539); assay: as above; format: biochemical; details: ATP equal to Km, 30°C
# Sequence of p38 (Q16539 whole entry): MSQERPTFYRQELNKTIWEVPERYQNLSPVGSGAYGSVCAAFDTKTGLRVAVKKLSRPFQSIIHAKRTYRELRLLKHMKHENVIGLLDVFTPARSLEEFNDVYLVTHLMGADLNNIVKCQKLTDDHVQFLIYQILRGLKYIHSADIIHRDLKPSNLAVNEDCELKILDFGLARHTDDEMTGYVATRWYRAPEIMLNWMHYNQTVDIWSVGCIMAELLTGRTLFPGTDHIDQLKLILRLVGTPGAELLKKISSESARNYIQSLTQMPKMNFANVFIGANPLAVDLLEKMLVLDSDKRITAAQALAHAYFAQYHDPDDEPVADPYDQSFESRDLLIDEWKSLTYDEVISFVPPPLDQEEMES
# Description: as §1
# [11] = baseline cardiovascular and pulmonary parameters one day after ozone or air exposure; format: in vivo, guinea pigs; details: ozone-exposed (2 ppm, 4 h), inhibitor 30 mg/kg ip 1 h before, one day post-exposure, mean ± SEM
# Description: Guinea pigs were exposed to 2 ppm ozone or filtered air for 4 hours as described previously. Physiological measurements, airway inflammation, and histological measurements were made one day after a single ozone exposure.
# Animals were given 30 mg/kg intraperitoneally of the dual p38 and JNK MAPK inhibitors V-05-013, V-05-014, or V-05-015 (Vertex Pharmaceuticals, Cambridge, MA) one hour before ozone exposure (Figure 1). These compounds were chosen because of their overall kinase selectivity profile. […] Inhibitors were dissolved in 25% DMSO in phosphate buffered saline (PBS). Air exposed control animals were given 25% DMSO in PBS one hour before ozone exposure.
# One day after exposure to ozone, guinea pigs were anesthetized with 1.9 g/kg urethane i.p. (Sigma-Aldrich, St. Louis, MO). This dose produces a deep anesthesia lasting 8–10 hours though no experiments lasted longer than 4 hours.
# Physiological measurements were made as previously described. The jugular veins were cannulated for intravenous administration of drugs and the right carotid artery was cannulated to measure heart rate and blood pressure. Both vagus nerves were cut and distal ends placed on platinum electrodes submerged in liquid paraffin. Animals were tracheostomized, ventilated (1 ml/100 g body weight, 100 breaths per minute) and paralyzed with a constant infusion of succinylcholine (10 µg/kg/min iv, Sigma-Aldrich). Pulmonary inflation pressure was measured at the trachea and bronchoconstriction was measured as the increase in pressure over basal inflation pressure produced by the ventilator.
smiles,measurement,setting,value
OC1CCN(Cc2onc(-c3ccc(F)cc3)c2-c2ccnc(NC3CCCCC3)n2)CC1 [V-05-013],Ki,[1],> 1000 nM
same,Ki,[2],> 1000 nM
same,Ki,[3],> 1000 nM
same,Ki,[4],> 1000 nM
same,Ki,[5],> 1000 nM
same,Ki,[6],> 1000 nM
same,Ki,[7],> 1000 nM
same,Ki,[8],> 1000 nM
same,Ki,[9],> 1000 nM
same,Ki,[10],13 nM
same,Pulmonary Inflation Pressure (baseline),[11],190±15 ^‡ mmH2O
OC[C@@H]1CCCN1Cc1onc(-c2ccc(F)cc2)c1-c1ccnc(NC2CCCCC2)n1 [V-05-014],Ki,[1],> 1000 nM
same,Ki,[2],> 1000 nM
same,Ki,[3],> 1000 nM
same,Ki,[4],> 1000 nM
same,Ki,[5],> 1000 nM
same,Ki,[6],> 1000 nM
same,Ki,[7],> 1000 nM
same,Ki,[8],> 1000 nM
same,Ki,[9],> 1000 nM
same,Ki,[10],15 nM
same,Pulmonary Inflation Pressure (baseline),[11],225±5 mmH2O
Fc1ccc(-c2noc(CN3CCCCC3)c2-c2ccnc(NC3CCCCC3)n2)cc1 [V-05-015],Ki,[1],> 1000 nM
same,Ki,[2],> 1000 nM
same,Ki,[3],> 1000 nM
same,Ki,[4],> 1000 nM
same,Ki,[5],> 1000 nM
same,Ki,[6],> 1000 nM
same,Ki,[7],> 1000 nM
same,Ki,[8],> 1000 nM
same,IC50,"[10]; read-out: IC50 p38 (footnote: this one value is an IC50, not a Ki)",8 nM
same,Pulmonary Inflation Pressure (baseline),[11],213±7 mmH2O
